Reference: US20200338195A1, “PHARMACEUTICAL COMPOSITIONS COMPRISING 0.25 MG DOSE OF SYNTHETIC HUMAN PEPTIDES FOR TREATING SYSTEMIC LUPUS ERYTHEMATOSUS” (priority 2016, published 2020)
Entries after “also recorded” stand apart in the source; their conditions may differ. Like-named read-outs stand apart in the source and are kept apart here.

Legend:
[1] = system: subjects with active SLE; test: Low dose Edratide therapy, 26-week phase 2 dose-ranging study (Example 2); type: in vivo, human
From the text: The study will test about 200 study subjects, in about 50 centres. The study population will include seropositive SLE patients (presence of anti-dsDNA antibodies by FARRzyme immunoassay, titer ≥30 IU, and/or the Crithidia luciliae immunofluorescence test, and/or antinuclear antibodies (ANA) ≥1:160 or 1:80 in which case the Adjudication Committee would review the subject's data at baseline.
The total duration of the study is expected to be 34 weeks: • Screening Phase: <30 days (4 weeks) • Phase 2 double-blind treatment phase: 26 weeks (6 months) • Follow-up phase for safety: 4 weeks
Glucocorticoid dosing: It is highly recommended to initiate tapering from the baseline dose of prednisone/prednisone equivalent on or after week 4, as clinically indicated from doses ≥15 mg/day to ≥7.5 mg/day; tapering could continue until week 18. No changes in dose of prednisone/prednisone equivalent doses are allowed during weeks 19-26, the last 8 weeks of the trial. No specific tapering regimen is required, but to be determined as clinically indicated by the investigator.
Active SLE patients will be screened for up to 30 days prior to the baseline visit (visit 2). Each subject will undergo screening evaluations.
The subjects must meet the following inclusion criteria: • 1.Subjects diagnosed with SLE must have a documented medical history to meet Systemic Lupus International […] (SLICC) classification criteria for SLE, or have accumulated 4 classification criteria (1997 revised) of the American College of Rheumatology (ACR) for SLE prior to first dose. • 2. Subjects with active SLE must have: • a. At least one BILAG-A and/or two BILAG-B's, and • b. SLEDAI score of 6 or higher, excluding serology scores, and be • c. Serologically-positive as defined by 2 positive ANA or anti-dsDNA antibody test results (titer ≥30 IU by FARR radioimmunoassay and/or the Crithidia luciliae immunofluorescence test, and/or ANA 1:160 or 1:80 in which case the adjudication committee would review the subject's data) of which ≥1 test result must be obtained during screening • 3. Subjects must be ≥18 years of age • 4. SLE patients on stable SLE treatment regimen for at least three (3) months • 5. SLE patients on 15 mg of prednisone/prednisone equivalent, which have been stable for at least 14 days • 6. Subjects receiving 2 g/days of Mycophenolate mofetil (MMF) or ≤1440 mg of Myfortic • 7. Women of child-bearing potential must practice a medically acceptable method of contraception. Acceptable methods include: surgical sterilization, IUD, hormonal preparations, or double barrier method (e.g. condom or diaphragm with spermicidal) • 8. Subjects must be willing and able to give written informed consent prior to entering the study. • 9. Subjects must understand the requirements of the study and agree to comply with the study protocol.
The presence of any of the following excludes a subject from study enrollment: • i. Subjects with active Lupus nephritis as defined by a protein to creatinine ratio limit of ≥0.75 and/or active urine sediments defined as hematuria (>10 RBC/HPF) and/or RBC casts. • ii. Subjects with active central nervous system (CNS) Lupus as defined by CNS BILAG-A or BILAG-B. • iii. Subjects with active peripheral nervous system (PNS) Lupus as defined by PNS BILAG-A or BILAG-B. • iv. Subjects receiving >15 mg of glucocorticoid at baseline • v. Subjects having recently received • a. Cyclophosphamide (wash-out period 3 months), • b. Cyclosporine (wash-out period 3 months), • c. Rituximab (wash-out period at least 52 weeks provided that the CD19 count has returned to normal), or • d. Belimumab (wash-out period 6 months) • e. Any investigational drug (wash-out period 5 half-lives of elimination) […]

[2] = system: SLE patients; details: cited from earlier work; for incidence of adverse events (AEs), % of the subjects: placebo 75%
[3] = system: SLE patients with stable, mild to moderate SLE disease; details: cited from earlier work
[4] = system: SLE patients; test: PRELUDE Study, phase 2 placebo-controlled efficacy, tolerability and safety study of three doses of Edratide; details: for early withdrawal due to AE, % of subjects: placebo 2.3%; for AE incidence: 26 weeks, placebo 79.3%
Description: The total study treatment duration was 26 weeks. Scheduled visits were performed at screening, baseline and at weeks 4, 8, 12, 16, 20, 24, and 26 (termination). […] Non-compliance with the tapering down scheme was not regarded as a protocol violation. During the entire course of the study it was allowed to increase the steroid prednisolone dose to up to 60 mg. Use of intravascular/intramuscular steroid was considered a protocol violation. […] PK assessment of CAPTISOL® for all four treatment groups was conducted following the first dose and Weeks 12 and 26 doses. Disease and drug related immunology parameters were tested at baseline and at several time points thereafter.
The main inclusion criteria of this trial were: • SLEDAI 2K score of 6-12 • Stable concomitant medications (prednisone<40 mg, NSAIDs, antimalarials) for at least 1 month prior to baseline.
The co-primary end-points presented in their hierarchical order below were: • Change from baseline to last observed value (LOV) in SLEDAI 2K score (Landmark Analysis.) • Adjusted Mean SLEDAI 2K (AMS). AMS represents the time weighted average of disease activity as measured by SLEDAI 2K score [area under the curve (AUC) of SLEDAI 2K].
Secondary end-points: • BILAG proportion of responders. BILAG responders were defined as: • a. Non Responder (NR)—same BILAG score in Last Observed Value (LOV) as in baseline in all systems or new A or B in at least one system compared to baseline (other systems may improve or deteriorate). • b. Substantial Responder (SR)—all systems at LOV are either C or D/E providing that at least one system was either A or B at baseline • c. […] Mental component Score. Change from baseline to LOV • SF-36 (QoL) Physical component Score—Change from Baseline to LOV • Time Weighted Average (TWA) on cumulative steroids dose with p.o. administration.
Exploratory end-points: • Primary end-point sensitivity analysis to steroid increase (excluding the observations following steroid increase) • Proportions of Zero SLEDAI Score at LOV • Time to Zero SLEDAI Score • BILAG Total Score—Change from Baseline to LOV
Flares Analysis: • Time to medicinal flare • Time to new BILAG A or at least two new B's • Time to new BILAG A or at least two new B's (excluding persistent activity) • Steroid dose (PO)—Change from baseline to LOV • PGA—Physician's Global Assessment

[5] = system: peripheral blood lymphocytes (PBL) of SLE patients; details: cited from earlier work
[6] = system: mice afflicted with spontaneous or experimental SLE; details: mouse, in vivo; cited from earlier work

With H-GYYWSWIRQPPGKGEEWIG-OH [Edratide] the “global assessment of disease activity based on MCID” value ([1]; 0.25 mg sc every week) was “significant improvement”, the “mean Lupus-QOL relative to baseline” value ([1]; 0.25 mg sc every week) was “significant improvement” and the “mean time to first confirmed major SLE flare” value ([1]; 0.25 mg sc every week, Fortin definition) was “significantly increased”. For the same substance, the “mean time to first confirmed severe SLE flare” value ([1]; 0.25 mg sc every week, new BILAG A or two new BILAG B) was “significantly increased”, the disease parameter/s ([1]; 0.25 mg sc every week, specific sub-populations of SLE subjects) was “improvements of disease parameter/s; also recorded: improvement of at least one disease parameter” and the “mean glucocorticoid dose relative to baseline” value ([1]; 0.25 mg sc every week, week 26) was “significant change”. The “proportion of subjects achieving MCID of one by SLEDAI-2K Responder Index 50” value ([1]; 0.25 mg sc every week, week 26) was “significant proportion”, the “proportion of subjects achieving a response by composite SLE Responder Index (cSRI)” value ([1]; 0.25 mg sc every week, week 26) was “significant proportion” and the “proportion of subjects achieving response by the SLE Responder Index” value ([1]; 0.25 mg sc every week, week 26) was “significant proportion”. The “proportion of subjects having all organ systems either BILAG C or BILAG D/E” value ([1]; 0.25 mg sc every week, week 26) was “significant proportion”, the “proportion of subjects with at least one BILAG A or B organ system at baseline dropping by one score without deterioration to BILAG A or B in any other system” value ([1]; 0.25 mg sc every week, week 26, primary outcome) was “significant proportion” and the “reduction of the amount of corticosteroid therapy required to control disease activity of SLE” value ([1]; weekly 0.25 mg dose) was “effective in enabling reduction”. For the same substance, the “change of total SLEDAI-2K score during the study” value ([2]; single sc 0.5, 1 or 2.5 mg, any subject except one in the 0.5 mg group (2 to 10 points at Week 4)) was “No noteworthy change”, the “incidence of adverse events (AEs), % of the subjects” value (“incidence … % of the subjects” below) ([2]; single sc injection 0.5 mg) was 33% and the “incidence … % of the subjects” value ([2]; single sc injection 1 mg) was 67%. The “incidence … % of the subjects” value ([2]; single sc injection 2.5 mg) was 80%, the “subjects with an increase in total SLEDAI-2K score of 0-3 points during the study” value ([3]; 0.5 mg group) was “Two” and the “subjects with an increase in total SLEDAI-2K score of 0-3 points during the study” value ([3]; 2.5 mg group) was 2 subjects. For the same substance, the “subjects reporting AEs during the 8-week follow-up period (off-drug)” value ([3]; all treatment groups) was “Approximately 50%”, the “adjusted mean SLEDAI (AMS) score, change from baseline to termination visit” value ([3]; all treatment groups, decrease = improvement) was −0.1 to −1.5 points and the “mean group total BILAG score during the study” value ([3]; any treatment group) was “No trend”. For the same substance, the “overall incidence of AEs between all treatment groups” value ([3]; sc twice weekly for 4 weeks, 0.5, 1 or 2.5 mg vs placebo) was “no prominent difference”, the “serious adverse events (SAE) throughout the study” value ([3]; sc twice weekly for 4 weeks, 0.5, 1 or 2.5 mg) was “No SAE was reported” and the “severity of injection site reactions” value ([3]; sc twice weekly for 4 weeks, all treatment groups) was “mild”. The “post hoc analysis on BILAG responders, system improved” value ([4]; 0.5 mg Edratide) was “improvement mainly in the cutaneous system”, the “Serious Adverse Events (SAEs), % of subjects” value ([4]; 0.5 mg Edratide (6 subjects), placebo 10.3%) was 7.1% and the “Serious Adverse Events (SAEs), % of subjects” value ([4]; 1.0 mg dose group (10 subjects), placebo 10.3%) was 11.5%. For the same substance, the “Serious Adverse Events (SAEs), % of subjects” value ([4]; 2.5 mg dose group (8 subjects), placebo 10.3%) was 9.8%, the “early withdrawal due to AE, % of subjects” value ([4]; Edratide 0.5 mg (5 subjects)) was 6.0% and the “deaths during the study” value ([4]; Edratide 0.5 mg group, most probably septic shock, classified as not related to study drug) was “One”. For the same substance, the AE incidence ([4]; Edratide 0.5 mg sc) was 82.1%, the “BILAG substantial responders, % of subjects” value ([4]; Edratide 0.5 mg, ITT, LOV vs baseline, placebo 22%, p=0.03) was 36% and the “subjects with a medicinal flare” value ([4]; Edratide 0.5 mg, ITT, post hoc, n=14, placebo 29% (n=25), p=0.039) was 17%. The “medicinal flare, OR vs placebo” value ([4]; Edratide 0.5 mg, ITT, post hoc, p=0.039) was 0.43, the “BILAG substantial response, odds ratio (OR) vs placebo” value ([4]; Edratide 0.5 mg, ITT, p=0.03, not significant after multiplicity adjustment) was 2.09 and the “change in the SF-36 mental score compared to placebo” value ([4]; Edratide 0.5 mg, opposite trend for the physical score) was “slightly better”. For the same substance, the “early withdrawal due to AE, % of subjects” value ([4]; Edratide 1.0 mg (3 subjects)) was 3.4%, the AE incidence ([4]; Edratide 1 mg sc) was 77% and the “BILAG substantial responders, OR vs placebo” value ([4]; Edratide 1 mg, p=0.07 without correction for multiple comparison) was 1.85. For the same substance, the “early withdrawal due to AE, % of subjects” value ([4]; Edratide 2.5 mg (3 subjects)) was 3.7%, the AE incidence ([4]; Edratide 2.5 mg sc) was 75.6% and the “safety signal and dose response from the AEs analysis and additional safety data” value ([4]; Edratide 0.5, 1 and 2.5 mg) was “no clear dose response and no significant safety signal”. For the same substance, the “early terminations due to AEs vs placebo” value ([4]; Edratide vs placebo) was “more often on Edratide than on placebo”, the cSRI positive responders ([4]; ITT, n=26, placebo 20% (n=17), p=0.058, FIG. 4) was 34% and the “BILAG non-responders, seropositive patients” value ([4]; anti-DNA>30 IU at baseline, n=11, placebo 68% (n=21), p=0.05) was 42%. The “BILAG substantial responders, seropositive patients” value ([4]; anti-DNA>30 IU at baseline, placebo 26%, FIG. 2C) was 46%, the “co-primary endpoints (change from baseline to LOV in SLEDAI 2K score; adjusted mean SLEDAI 2K) vs placebo” value ([4]; any of the active treatment groups (0.5, 1, 2.5 mg)) was “no differences” and the “SF-36 mental or physical scores, differences between the treatment groups” value ([4]; change from baseline to LOV) was “No clinically or statistically significant differences”. The “cumulative change in steroid dose throughout the study, differences between the treatment groups” value ([4]; mean baseline steroids dose 9-10 mg/day of prednisolone) was “No clinically or statistically significant differences”, the “BILAG substantial responders, % of subjects” value ([4]; no steroids at baseline, 0.5 mg Edratide, placebo 13%, p=0.05) was 54% and the “mean reduction from baseline SLEDAI-2K score” value ([4]; overall, regardless of treatment) was “about 35%”. The SAE incidence ([4]; pooled Edratide group, placebo 10.3%) was 9.5%, the “BILAG substantial responders, % of subjects” value ([4]; prednisolone dose <20 mg at baseline (pooled cohort of 292 subjects), placebo 19%, p=0.007, FIG. 2B) was 40% and the “BILAG substantial response, OR vs placebo” value ([4]; prednisolone dose <20 mg at baseline, p=0.007) was 2.75. The “proliferative response of PBL of SLE patients to the human anti-DNA 16/6Id mAB” value [5] was “inhibit the proliferative response” and the “disease manifestations of mice afflicted with spontaneous or experimental SLE” value [6] was “ameliorate disease manifestations”.
